“And” between values parts separate entries of the source, which are not always exact repeats. Equal values may be shown once. Inconclusive results are not listed.
Tested on: BDF1 mice, colon carcinoma 38 sc, T/C %
Experiment: NCI In Vivo Anticancer Drug Screen. Data for tumor model Colon Carcinoma 38 (subcutaneous) in B6D2F1 (BDF1) mice
Conditions: endpoint: median tumor weight (est.), higher = larger tumour
Method in brief: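 Mice with transplanted tumors are treated with compound or vehicle. Survival or tumor size is then measured in both groups. The ratio of treated to control gives the reported figure.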

[1] = dose: 12.5 mg/kg/injection, schedule: Q07DX002 (ip), vehicle: Klucel (hydroxypropylcellulose) (HPC)
[2] = dose: 3.12 mg/kg/injection, schedule: Q07DX002 (ip), vehicle: saline
[3] = dose: 6.25 mg/kg/injection, schedule: Q07DX002 (ip), vehicle: saline
[4] = dose: 12.5 mg/kg/injection, schedule: Q07DX002 (ip), vehicle: saline
[5] = dose: 50.0 mg/kg/injection, schedule: Q07DX002 (ip), vehicle: saline with Tween-80
[6] = dose: 100.0 mg/kg/injection, schedule: Q07DX002 (ip), vehicle: saline with Tween-80
[7] = dose: 200.0 mg/kg/injection, schedule: Q07DX002 (ip), vehicle: saline with Tween-80
[8] = dose: 400.0 mg/kg/injection, schedule: Q07DX002 (ip), vehicle: saline with Tween-80
[9] = dose: 200.0 mg/kg/injection, schedule: Q07DX002 (ip), vehicle: Klucel (hydroxypropylcellulose) (HPC)
[10] = dose: 1.56 mg/kg/injection, schedule: Q07DX002 (ip), vehicle: saline
[11] = dose: 12.5 mg/kg/injection, schedule: Q07DX002 (ip), vehicle: saline with Tween-80
[12] = dose: 25.0 mg/kg/injection, schedule: Q07DX002 (ip), vehicle: saline with Tween-80
[13] = dose: 2.0 mg/kg/injection, schedule: Q07DX003 (ip), vehicle: saline

COC1C(O)CC(OC2CC(Oc3cc4cc5c(c(O)c4c(O)c3C)C(=O)[C@@H](OC3CC(OC4CC(OC6CC(C)(O)C(OC(C)=O)C(C)O6)C(O)C(C)O4)C(O)C(C)O3)[C@H]([C@H](OC)C(=O)[C@@H](O)[C@@H](C)O)C5)OC(C)C2OC(C)=O)OC1C (some centres not stated)
T/C (dose: 0.04 mg/kg/injection, schedule: Q07DX002 (ip), vehicle: Klucel (hydroxypropylcellulose) (HPC)): 109 % of control and 105 % of control
T/C (dose: 0.08 mg/kg/injection, schedule: Q07DX002 (ip), vehicle: Klucel (hydroxypropylcellulose) (HPC)): 207 % of control and 76 % of control
T/C (dose: 0.16 mg/kg/injection, schedule: Q07DX002 (ip), vehicle: Klucel (hydroxypropylcellulose) (HPC)): 71 % of control

C=CS(C=C)=NS(=O)(=O)c1ccc(C)cc1
T/C (dose: 1.56 mg/kg/injection, schedule: Q07DX002 (ip), vehicle: Klucel (hydroxypropylcellulose) (HPC)): 110 % of control
T/C (dose: 6.25 mg/kg/injection, schedule: Q07DX002 (ip), vehicle: Klucel (hydroxypropylcellulose) (HPC)): 110 % of control
T/C [1]: 111 % of control
T/C (dose: 25.0 mg/kg/injection, schedule: Q07DX002 (ip), vehicle: Klucel (hydroxypropylcellulose) (HPC)): 94 % of control

COc1cc([C@@H]2c3cc4c(cc3[C@@H](OC3OC5COC(C)OC5C(O)C3O)[C@H]3COC(=O)[C@H]23)OCO4)cc(OC)c1O (some centres not stated)
T/C (dose: 16.0 mg/kg/injection, schedule: Q07DX003 (ip), vehicle: clinical formulation): 68 % of control
T/C (dose: 32.0 mg/kg/injection, schedule: Q07DX003 (ip), vehicle: clinical formulation): 83 % of control
T/C (dose: 64.0 mg/kg/injection, schedule: Q07DX003 (ip), vehicle: clinical formulation): 27 % of control

O=CC(O)C(O)C(O)C(O)C(=O)O.[NH-]C1CCCCC1[NH-].[Pt+2] (configuration not stated)
T/C [2]: 56 % of control
T/C [3]: 23 % of control and 24 % of control and 34 % of control
T/C [4]: 10 % of control and 22 % of control and 34 % of control
T/C (dose: 25.0 mg/kg/injection, schedule: Q07DX002 (ip), vehicle: saline): 12 % of control and 15 % of control

CC(=S)NC(O)C(=O)c1ccccc1 (configuration not stated)
T/C [5]: 71 % of control and 82 % of control
T/C [6]: 77 % of control and 99 % of control
T/C [7]: 98 % of control and 103 % of control
T/C [8]: 115 % of control

C[Si](C)(CCl)N[Si](C)(C)CCl
T/C [5]: 99 % of control
T/C [6]: 100 % of control
T/C [8]: 150 % of control

CC(=O)[O][Pb]([O]C(C)=O)([c]1ccccc1)[c]1ccccc1
T/C [1]: 216 % of control
T/C [9]: 72 % of control

C=CC(=O)N1CN(C(=O)C=C)CN(C(=O)C=C)C1
T/C (dose: 1.56 mg/kg/injection, schedule: Q07DX002 (ip), vehicle: saline with Tween-80): 82 % of control
T/C [10]: 74 % of control
T/C (dose: 3.12 mg/kg/injection, schedule: Q07DX002 (ip), vehicle: saline with Tween-80): 85 % of control
T/C [2]: 110 % of control
T/C (dose: 6.25 mg/kg/injection, schedule: Q07DX002 (ip), vehicle: saline with Tween-80): 104 % of control
T/C [3]: 90 % of control
T/C [11]: 120 % of control

C/C=C/c1cc2c(c(=O)o1)C(=O)[C@@H](O)[C@H](C)O2
T/C [11]: 73 % of control and 95 % of control
T/C [12]: 61 % of control and 80 % of control
T/C [5]: 72 % of control and 76 % of control
T/C [7]: 71 % of control and 86 % of control

O=c1c(O)c(-c2cc(O)c(O)c(O)c2)oc2cc(O)cc(O)c12
T/C (dose: 6.25 mg/kg/injection, schedule: Q07DX002 (ip), vehicle: other): 75 % of control
T/C (dose: 12.5 mg/kg/injection, schedule: Q07DX002 (ip), vehicle: other): 87 % of control
T/C [11]: 152 % of control and 172 % of control
T/C (dose: 25.0 mg/kg/injection, schedule: Q07DX002 (ip), vehicle: other): 73 % of control
T/C [12]: 113 % of control and 107 % of control
T/C (dose: 50.0 mg/kg/injection, schedule: Q07DX002 (ip), vehicle: other): 96 % of control
T/C [5]: 120 % of control and 107 % of control
T/C (dose: 100.0 mg/kg/injection, schedule: Q07DX002 (ip), vehicle: other): 65 % of control
T/C [6]: 161 % of control and 214 % of control
T/C (dose: 200.0 mg/kg/injection, schedule: Q07DX002 (ip), vehicle: other): 98 % of control
T/C [7]: 187 % of control
T/C (dose: 400.0 mg/kg/injection, schedule: Q07DX002 (ip), vehicle: other): 77 % of control
T/C [8]: 116 % of control and 100 % of control

COC(C(=O)C(O)C(C)O)C1Cc2cc3cc(OC4CC(OC(C)=O)C(OC5CC(O)C(OC)C(C)O5)C(C)O4)cc(O)c3c(O)c2C(=O)C1OC1CC(OC2CC(OC3CC(C)(O)C(OC(=O)C(C)C)C(C)O3)C(O)C(C)O2)C(O)C(C)O1 (configuration not stated)
T/C (dose: 0.12 mg/kg/injection, schedule: Q07DX002 (ip), vehicle: saline with Tween-80): 113 % of control
T/C (dose: 0.25 mg/kg/injection, schedule: Q07DX002 (ip), vehicle: saline): 81 % of control
T/C (dose: 0.5 mg/kg/injection, schedule: Q07DX002 (ip), vehicle: saline with Tween-80): 113 % of control
T/C (dose: 0.5 mg/kg/injection, schedule: Q07DX002 (ip), vehicle: saline): 78 % of control
T/C (dose: 1.0 mg/kg/injection, schedule: Q07DX002 (ip), vehicle: saline with Tween-80): 59 % of control
T/C (dose: 1.0 mg/kg/injection, schedule: Q07DX002 (ip), vehicle: saline): 89 % of control
T/C (dose: 2.0 mg/kg/injection, schedule: Q07DX002 (ip), vehicle: saline with Tween-80): 55 % of control
T/C (dose: 2.0 mg/kg/injection, schedule: Q07DX002 (ip), vehicle: saline): 124 % of control
T/C (dose: 4.0 mg/kg/injection, schedule: Q07DX002 (ip), vehicle: saline with Tween-80): 48 % of control
T/C (dose: 4.0 mg/kg/injection, schedule: Q07DX002 (ip), vehicle: saline): 92 % of control

N[C@@H](Cc1ccc(N(CCCl)CCCl)cc1)C(=O)O
T/C (dose: 2.0 mg/kg/injection, schedule: Q07DX002 (ip), vehicle: Klucel (hydroxypropylcellulose) (HPC)): 81 % of control
T/C [13]: 106 % of control
T/C (dose: 2.5 mg/kg/injection, schedule: Q07DX003 (ip), vehicle: saline with Tween-80): 51 % of control
T/C (dose: 3.75 mg/kg/injection, schedule: Q07DX002 (ip), vehicle: Klucel (hydroxypropylcellulose) (HPC)): 54 % of control and 61 % of control
T/C (dose: 4.0 mg/kg/injection, schedule: Q07DX002 (ip), vehicle: Klucel (hydroxypropylcellulose) (HPC)): 107 % of control
T/C (dose: 5.0 mg/kg/injection, schedule: Q07DX003 (ip), vehicle: saline with Tween-80): 44 % of control
T/C (dose: 7.5 mg/kg/injection, schedule: Q07DX002 (ip), vehicle: Klucel (hydroxypropylcellulose) (HPC)): 33 % of control and 37 % of control
T/C (dose: 15.0 mg/kg/injection, schedule: Q07DX002 (ip), vehicle: Klucel (hydroxypropylcellulose) (HPC)): 16 % of control
T/C (dose: 16.0 mg/kg/injection, schedule: Q07DX002 (ip), vehicle: saline): 8 % of control (2×) and 11 % of control

CC(=Nc1ccccc1)C1=C(O)C(Cc2ccccc2)NC1=O (configuration not stated)
T/C [11]: 86 % of control and 105 % of control
T/C [6]: 45 % of control and 50 % of control
T/C [7]: 70 % of control and 82 % of control

CSc1ccc2c(c1)C(N1CCN(C)CC1)Cc1ccccc1S2 (configuration not stated)
T/C [5]: 68 % of control and 72 % of control

C1CCC2C[N-]CCC2C1.C1CCC2C[N-]CCC2C1.C1CCC2C[N-]CCC2C1.C1CCC2C[N-]CCC2C1.[Cl][Rh][Cl] (configuration not stated)
T/C (dose: 1.0 mg/kg/injection, schedule: Q07DX003 (ip), vehicle: saline): 107 % of control
T/C [13]: 62 % of control
T/C (dose: 4.0 mg/kg/injection, schedule: Q07DX003 (ip), vehicle: saline): 82 % of control
T/C (dose: 8.0 mg/kg/injection, schedule: Q07DX003 (ip), vehicle: saline): 87 % of control
T/C (dose: 16.0 mg/kg/injection, schedule: Q07DX003 (ip), vehicle: saline): 78 % of control

O=NNc1ccccn1
T/C [10]: 98 % of control
T/C [2]: 85 % of control and 96 % of control
T/C [3]: 110 % of control
T/C [4]: 120 % of control and 106 % of control
T/C (dose: 50.0 mg/kg/injection, schedule: Q07DX002 (ip), vehicle: saline): 95 % of control

N#CCCSC(=S)C1CCCC1=N (configuration not stated)
T/C [12]: 107 % of control
T/C [5]: 95 % of control
T/C [6]: 90 % of control
T/C [7]: 99 % of control
T/C [8]: 71 % of control
T/C (dose: 800.0 mg/kg/injection, schedule: Q07DX002 (ip), vehicle: saline with Tween-80): 86 % of control

Cc1ccc(NCCN(C)C)c2c(=O)c3cc(O)ccc3sc12
T/C (dose: 100.0 mg/kg/injection, schedule: Q07DX002 (ip), vehicle: Klucel (hydroxypropylcellulose) (HPC)): 42 % of control and 48 % of control
T/C [9]: 17 % of control

CCOC(=O)c1[nH]c2cccc3c2c1CC(Br)C3=O (configuration not stated)
T/C [12]: 120 % of control
T/C [5]: 92 % of control
T/C [6]: 90 % of control
T/C [7]: 78 % of control
